Assay results reported in paper PMC12316891, “A bottom-up approach to find lead compounds in expansive chemical spaces” (Communications Chemistry, 2025).
Read-outs that look alike come from different tables or passages of the source.

How the values were obtained:
BRD4 (BD1) [1] = target: T1, BRD4 (BD1) (Homo sapiens, UniProt O60885); experiment: Differential scanning fluorimetry (DSF) single-dose thermal shift screening; format: binding; conditions: DSF, compound 10 µM, BRD4 (BD1) 2 µM, n = 3, decimal comma; for ΔTm at 10 µM: read-out: ΔTm ºC at [10 µM]
T1 construct: A pET28 plasmid containing residues 44–168 of BRD4 (BD1), a 6xHis tag, a TEV protease cleavage site; 6xHis (N, cleaved yes); made in house; host or cells: E. coli Rosetta (D3)

His6-BRD4 (BD1) = target: T2, His6-BRD4 (BD1) (Homo sapiens, UniProt O60885); experiment: Surface plasmon resonance (SPR) single-dose screening; format: binding; design: key to SPR RESULT: Positive: compounds were considered as SPR hits also when their average signal was further than two standard deviations apart from the average signal of the blank samples (1% DMSO); conditions: for RUs at [10 µM]: SPR, compound 10 µM, 1% DMSO, n = 2, decimal comma; for SPR RESULT: single dose 10 µM, n = 2
T2 construct: A pET28 plasmid containing residues 44–168 of BRD4 (BD1), a 6xHis tag, a TEV protease cleavage site; made in house; host or cells: E. coli Rosetta (D3)

BRD4 (BD1) [2] = target: T1, BRD4 (BD1); experiment: Competitive HTRF TR-FRET binding assay (displacement of acetylated histone H4 peptide)
Protocol: To further quantitatively characterize the DSF/SPR hits compounds obtained in the single-dose screenings, we selected HTRF TR-FRET. Specifically, we employed a competitive HTRF TR-FRET experiment to measure the compound’s capacity to displace an acetylated peptide from the binding site of BRD4 (BD1). For each molecule, a 16-point concentration curve was titrated against the peptide-BRD (BD1) complex and incubated for 1.5 h. A compound was considered a positive binder if we could fit its titration curve to a sigmoidal curve to determine its IC50. […] Compound screening was carried out in 384-well, white, round-bottom, small-volume plates (CORNING) in a final volume of 20 µL of 50 mM HEPES (pH 7.4), 50 mM NaCl, 400 mM KF, 0.5 mM CHAPS, and 0.05% BSA. […] Then, the labeled anti-His6-XL665 antibody (CisBio) (10 nM) was added to the mixture and incubated for 15 min, before the Eu3+ cryptate-conjugated streptavidin (2 nM) (CisBio) was added and incubated for 15 min. All incubations were performed at room temperature. […] Titration of (+)−JQ1 was used as a positive control for each experiment.

[3] = 16-point titration 0.1 nM to 10 µM, n = 2, Negative = curve could not be fitted to a sigmoidal curve, read-out: TR-FRET IC50
[4] = 16-point titration 0.1 nM to 10 µM, n = 2, Negative = curve could not be fitted to a sigmoidal curve

| Compound | ΔTm at 10 µM (BRD4 (BD1) [1]) [°C] | RUs at [10 µM] (His6-BRD4 (BD1)) | SPR RESULT (His6-BRD4 (BD1)) | IC50 (BRD4 (BD1) [2]; [3]) [nM] | TR-FRET IC50 (nM) (BRD4 (BD1) [2]; [4]) | ΔTm ºC at [10 µM] (BRD4 (BD1) [1]) | IC50 (BRD4 (BD1) [2]) [nM] |
| --- | --- | --- | --- | --- | --- | --- | --- |
| CCn1nnc2cc(C(=O)N3CCCN(C(=O)c4ccccc4Cl)C(c4ccccc4)C3)ccc21 (stereo not drawn) [Compound 34, CCN1N=NC=2C=C(C=CC12)C(=O)N3CCCN(C(C3)C=4C=CC=CC4)C(=O)C=5C=CC=CC5Cl] | 0.86 | 23,05 ± 1,41 RUs | Positive | 1210 |  |  |  |
| COc1cccc(-n2c(C)nnc2SCC(=O)N2CC3CCC2CN3C(=O)c2ccns2)c1 (stereo not drawn) [Compound 35, COC=1C=CC=C(C1)N2C(C)=NN=C2SCC(=O)N3CC4CCC3CN4C(=O)C5=CC=NS5] | 0.69 | 13,78 ± 5,32 RUs | Negative | 1070 |  |  |  |
| CCn1nnc2cc(C(=O)N3CCC(N(C)C(=O)C4CN(C)CCO4)C3)ccc21 (stereo not drawn) [Compound 36, CCN1N=NC=2C=C(C=CC12)C(=O)N3CCC(C3)N(C)C(=O)C4CN(C)CCO4] | 0.34 | 6,83 ± 2,31 RUs | Negative |  | Negative |  |  |
| COc1cccc(-n2c(C)nnc2SCC(=O)N2CC(n3cc(-c4ccc(F)cn4)nn3)C2)c1 [Compound 37, COC=1C=CC=C(C1)N2C(C)=NN=C2SCC(=O)N3CC(C3)N4C=C(N=N4)C=5C=CC(F)=CN5] | 0.77 | 12,42 ± 11,24 RUs | Negative |  | Negative |  |  |
| COc1ccc(CNc2ccc3ccn(C)c(=O)c3c2)cc1OCC(C)C [Compound 38, COC=1C=CC(CNC=2C=CC=3C=CN(C)C(=O)C3C2)=CC1OCC(C)C] | 0.25 | 30,29 ± 13,03 RUs | Negative |  | Negative |  |  |
| COC(C)CC(=O)N1CCC(C2(O)CCN(C(=O)c3sc4nnc(C)c(C)c4c3N)C2)CC1 (stereo not drawn) [Compound 39, COC(C)CC(=O)N1CCC(CC1)C2(O)CCN(C2)C(=O)C=3SC=4N=NC(C)=C(C)C4C3N] | 1.12 | 11,34 ± 6,3 RUs | Negative | 78.9 |  |  |  |
| CCCc1c(C(=O)N2CCOC(CNC(=O)c3cc(C)ccn3)C2)[nH]c(C)c1C(C)=O (stereo not drawn) [Compound 40, CCCC1=C(NC(C)=C1C(=O)C)C(=O)N2CCOC(CNC(=O)C=3C=C(C)C=CN3)C2] | 1.13 | 9,46 ± 0,53 RUs | Positive | 372 |  |  |  |
| Cc1nnnn1-c1cc(F)cc(C(=O)N2CCN(C(=O)C(=O)NCC3CC3)C(C(C)C)C2)c1 (stereo not drawn) [Compound 41, CC(C)C1CN(CCN1C(=O)C(=O)NCC2CC2)C(=O)C=3C=C(F)C=C(C3)N4N=NN=C4C] | 1.7 | 1,13 ± 7,64 RUs | Negative |  | Negative |  |  |
| Cn1cc(C(=O)Nc2ccc(OCc3cnccn3)cc2)c2ccccc2c1=O [Compound 42, CN1C=C(C(=O)NC=2C=CC(OCC=3C=NC=CN3)=CC2)C=4C=CC=CC4C1=O] | 1.04 | 34,2 ± 10,95 RUs | Positive | 169 |  |  |  |
| COc1cccc(-n2c(C)nnc2SCC(=O)Nc2ccc(C(F)F)cc2)c1 [Compound 43, COC=1C=CC=C(C1)N2C(C)=NN=C2SCC(=O)NC=3C=CC(=CC3)C(F)F] | 1.99 | 32,1 ± 9,99 RUs | Positive | 1590 |  |  |  |
| COc1ccc(-n2c(C)nnc2SCC(=O)NCc2cc(C)nc(C)c2)cc1 [Compound 44, COC=1C=CC(=CC1)N2C(C)=NN=C2SCC(=O)NCC=3C=C(C)N=C(C)C3] | 1.68 | 17,34 ± 14,82 RUs | Negative | 5.83 |  |  |  |
| COc1ccc(-n2c(C)nnc2SCC(=O)N2CC3(CCN(C)CC3)C2)cc1 [Compound 45, COC=1C=CC(=CC1)N2C(C)=NN=C2SCC(=O)N3CC4(C3)CCN(C)CC4] | 2.18 | 9,8 ± 3,73 RUs | Negative |  | Negative |  |  |
| CC(NS(=O)(=O)c1cccc(-c2nnnn2C)c1)C1CCN(Cc2ccccc2)C1 (stereo not drawn) [Compound 46, CC(NS(=O)(=O)C=1C=CC=C(C1)C2=NN=NN2C)C3CCN(CC=4C=CC=CC4)C3] | 2.47 | 19,71 ± 0,01 RUs | Positive | 240 |  |  |  |
| COc1ccc(-c2cc(NC(=O)C(=O)NC(C)c3nnc4ncccn34)ccc2OC)cc1 (stereo not drawn) [Compound 47, COC=1C=CC(=CC1)C=2C=C(NC(=O)C(=O)NC(C)C3=NN=C4N=CC=CN34)C=CC2OC] | 1.25 | 25,41 ± 18,52 RUs | Negative | 256 |  |  |  |
| COc1ccc(-n2c(C)nnc2SCC(=O)N(c2ccccc2)C2CC2)cc1 [Compound 48, COC=1C=CC(=CC1)N2C(C)=NN=C2SCC(=O)N(C3CC3)C=4C=CC=CC4] | 2.35 | 4,63 ± 0,03 RUs | Negative | 53.2 |  |  |  |
| COc1ccc(-n2c(C)nnc2SCC(=O)NC2CCC3(CNC3)C2)cc1 (stereo not drawn) [Compound 49, COC=1C=CC(=CC1)N2C(C)=NN=C2SCC(=O)NC3CCC4(CNC4)C3] | 2.73 | 17,72 ± 5,47 RUs | Negative | 105 |  |  |  |
| CNC(=O)c1ccc(-n2nc(Cn3cccn3)nc2-c2cn(C)c(=O)c3ccccc23)cc1 [Compound 50, CNC(=O)C=1C=CC(=CC1)N2N=C(CN3C=CC=N3)N=C2C4=CN(C)C(=O)C=5C=CC=CC45] | 2.29 | 10,43 ± 9,29 RUs | Negative | 1130 |  |  |  |
| CN(C)S(=O)(=O)c1ccc(-n2nc(-c3cccnc3)nc2-c2cn(C)c(=O)c3ccccc23)cc1 [Compound 51, CN(C)S(=O)(=O)C=1C=CC(=CC1)N2N=C(N=C2C3=CN(C)C(=O)C=4C=CC=CC34)C=5C=CC=NC5] | 3.61 | 29,75 ± 5,31 RUs | Positive | 39.3 |  |  |  |
| COc1ccc(-n2c(C)nnc2SCC(=O)NC2CCN(C(=O)c3cc(Cl)sc3Cl)CC2C)cc1 (stereo not drawn) [Compound 52, COC=1C=CC(=CC1)N2C(C)=NN=C2SCC(=O)NC3CCN(CC3C)C(=O)C=4C=C(Cl)SC4Cl] | -0.23 | 31,14 ± 2,8 RUs | Positive | 266 |  |  |  |
| CN(C)C(=O)Sc1cc(NC(=O)c2cn(C)c(=O)c3ccccc23)ccc1Cl [Compound 53, CN(C)C(=O)SC=1C=C(NC(=O)C2=CN(C)C(=O)C=3C=CC=CC23)C=CC1Cl] | 1.09 | 28,62 ± 5,34 RUs | Positive | 1040 |  |  |  |
| CCCc1c(C(=O)N2CCC(Cc3cn(C4CC4)nn3)CC2)[nH]c(C)c1C(C)=O [Compound 54, CCCC1=C(NC(C)=C1C(=O)C)C(=O)N2CCC(CC3=CN(N=N3)C4CC4)CC2] | 2.91 | 17,03 ± 5,1 RUs | Negative | 277 |  |  |  |
| COc1ccc(-n2c(C)nnc2SCC(=O)Nc2ccc(C)c(Cl)c2Cl)cc1 [Compound 55, COC=1C=CC(=CC1)N2C(C)=NN=C2SCC(=O)NC=3C=CC(C)=C(Cl)C3Cl] |  | 11,56 ± 1,14 RUs | Positive |  |  | 3,66 ± 0,12 ºC | 1020 |
| CCn1nnc2cc(C(=O)N3CCC(c4nnc(CNC(=O)c5ccncn5)s4)CC3)ccc21 [Compound 56, CCN1N=NC=2C=C(C=CC12)C(=O)N3CCC(CC3)C4=NN=C(CNC(=O)C=5C=CN=CN5)S4] | 3.79 | 10,07 ± 8,75 RUs | Negative | 722 |  |  |  |
| COC1(CNC(=O)C2=C(Cl)CCCC2)CCN(C(=O)c2sc3nnc(C)c(C)c3c2N)CC1 [Compound 57, COC1(CNC(=O)C2=C(Cl)CCCC2)CCN(CC1)C(=O)C=3SC=4N=NC(C)=C(C)C4C3N] | 0.48 | 26,22 ± 6,56 RUs | Positive |  | Negative |  |  |
